Patent US20130263298A1, “MODELS FOR DIAGNOSIS, PREVENTION AND TREATMENT OF ALZHEIMER'S DISEASE” (INDIGO CAPITAL GROUP LLC, priority 2012, published 2013)

Legend:
Drosophila melanogaster = test: Phase-I lifespan of yellow-white Drosophila fed dietary supplements; type: in vivo; conditions: male yellow-white Drosophila, supplement at optimal RDA in diet; for increase in mean survival / longevity: vs. control (36 days)
Protocol: For the phase-I of the study, approximately 1200 male yellow-white Drosophila were bred, isolated and monitored on a daily basis. About 100 fruit flies were tested for each supplement, divided into four vials containing 25 flies each.
In an embodiment of the present invention, a mathematical formula was developed by the inventor for an optimal dosage: Recommended daily human dosage of each supplement per day, divided by 1,000,000 (average weight of a person 50 kg, average weight of 100 flies […]), multiplied by 2 as tubes are used initially for two days, multiplied by 100 as it is assumed only 1% of the food is consumed, multiplied by 4 as bulk food was made for 1 week/8 days. According to the formula, if 100 mg is the recommended human daily dosage of a supplement, the fly dose is 0.08 mg. This was considered optimal required daily allowance (RDA). The supplements were measured on the milligram gemological weighing machine and combined with the regular Drosophila diet (Carolina 424 media, yeast, water) in a temperature controlled insect culture incubator under optimal conditions. 50% survival was calculated by counting the flies that died and transferring the live flies into a different vial with newly made media every two days and near the end, every day. The observations were recorded, calculated, graphed and analysed. Two tailed t-tests were performed to test for statistical significance.

GCLc enzyme = test: Western Blot test for GCLc enzyme levels in supplement-fed flies; type: in vivo, Drosophila melanogaster; conditions: optimal dose (3x), 15 days feeding, compared to the control
Protocol: For the phase-III of the experiment, a new set of Drosophila melanogaster were bred for Western blot and Glutathione assays. […] Single, triple, and six times strength for each of the three supplements were added to 25 flies each in vials along with control for 15 days. The flies were then transferred to perform the Western Blot test to check for GCLc enzyme levels for each group. […] Details of the procedure for Western Blot are mentioned below. A western blot is a method that allows investigators to detect a specific protein in a given sample of tissue. The flies were frozen with dry ice, then standardized, lysis buffer added, homogenized and then centrifuged. The proteins were separated by their molecular weight ([…]) by SDS-PAGE, polyacrylamide gel electrophoresis. An 8% acryl amide gel was used. Smaller proteins migrate faster. Samples were loaded into the wells and a voltage of 150 Volts was applied. The proteins were transferred to a PVDF sheet of special blotting paper. The uniformity was checked by the Coomassie stain. […] A digital image of the western blot was captured using fluorescence and analysed.

Glutathione = test: Fluorometric Glutathione Assay (monochlorobimane) in supplement-fed flies; type: in vivo, Drosophila melanogaster; conditions: optimal dose (3x), 15 days feeding, compared to the control
Protocol: For the phase-III of the experiment, a new set of Drosophila melanogaster were bred for Western blot and Glutathione assays. […] Single, triple, and six times strength for each of the three supplements were added to 25 flies each in vials along with control for 15 days. The flies were then transferred to perform the Western Blot test to check for GCLc enzyme levels for each group. […] Glutathione Detection Kit from BioVision's ApoGSH was used for an in vitro assay for detection of total glutathione changes in tissue samples. The assay used monochlorobimane (MCB), a dye that appears to form an adduct exclusively with glutathione. […] The reaction was catalysed by glutathione S-transferase. Thus, the amount of total glutathione was detected using a fluorimeter. In an embodiments of the present invention, the kit contents included Cell Lysis Buffer—25 ml, Monochlorobimane (25 mM)—200 μl, GST Reagent (50 U/ml)-200 μl, and GSH Standard (1 mg; MW: 307)—1 Vial. Monochlorobimane was dissolved in DMSO and warmed at a temperature above 18° C. for use. After opening the kit, MCB, GST, and GSH were stored at −20° C. and Cell Lysis Buffer was stored at 4° C. The GSH standard was reconstituted with 100 μl dH2O to generate 10 μg/μl standard stock solution. […] Reading: […] The sample readings were applied to the standard curve to calculate total glutathione amount in each sample. […]

Structure (SMILES) | increase in mean survival / longevity (Drosophila melanogaster) [%] | increase in GCLc enzyme (GCLc enzyme) [%] | increase in glutathione (Glutathione) [%] | mean survival (Drosophila melanogaster; control 36 days) [days]
CC(=O)N[C@@H](CS)C(=O)O [NAC, N acetyl cysteine] | 28 | – | – | –
N[C@@H](CCC(=O)N[C@@H](CS)C(=O)NCC(=O)O)C(=O)O [Glutathione] | 11 | 7 | 154 | –
COC1=C(OC)C(=O)C(C/C=C(\C)CC/C=C(\C)CC/C=C(\C)CC/C=C(\C)CC/C=C(\C)CC/C=C(\C)CC/C=C(\C)CC/C=C(\C)CC/C=C(\C)CCC=C(C)C)=C(C)C1=O [Coenzyme Q10] | 11 | – | – | –
Oc1ccc(C=Cc2cc(O)cc(O)c2)cc1 [Resveratrol] | 39 | 1 | 100 | 50
